Experimental data from patent US20100137315A1, “Sphingosine Kinase Inhibitors and Methods of Their Use” (APOGEE BIOTECHNOLOGY CORPORATION, priority 2005, published 2010).

What was measured:
C57BL/6 mice = assay: Acute DSS-colitis model of IBD; assay type: in vivo, mouse; conditions: 2% DSS, 50 mg/kg oral daily
Protocol: FIG. 4. Effects of Compound 8 and Dipentum on the DAI in the acute DSS-colitis model. C57BL/6 mice were treated for 6 days as follows: normal drinking water and daily oral administration of PEG (No DSS), 2% DSS in the drinking water and daily oral administration of PEG (DSS alone); 2% DSS in the drinking water and daily oral administration of 50 mg/kg Compound 8 in PEG (DSS+Compound 8), or 2% DSS in the drinking water and daily oral administration of 50 mg/kg Dipentum in PEG (DSS+Dipentum). On the indicated day, the Disease Activity Index was calculated for each group. Values represent the mean±sd for 5-6 mice per group.
FIG. 5. Effects of Compound 8 and Dipentum on colon length in the acute DSS-colitis model. Mice from the experiment described in FIG. 4 were sacrificed on Day 6, and the colon was harvested from each animal and measured. Data represent the mean±sd colon length.
FIG. 6. Effects of Compound 8 and Dipentum on neutrophil infiltration into the colon in the acute DSS-colitis model. Myeloperoxidase (MPO) activity from the colons of the animals described in FIG. 4 was measured. Values the mean±sd MPO activity in units per gram of tissue.
FIG. 7. Effects of Compound 8 and Dipentum on colonic cytokine levels in the acute DSS-colitis model. Colon samples from mice described in FIG. 4 were extracted and assayed for the levels of the indicated cytokines Values represent the mean±sd amount of each cytokine in 4-5 samples per group.
Experiments were conducted with SK inhibitors using the dextran sulfate sodium (DSS) model of IBD. In these experiments, male C57BL/6 mice were provided with standard rodent diet and water ad libitum. After their acclimation, the animals were randomly divided into groups of 5 or 6 for DSS (40,000 MW from ICN Biomedicals, Inc., Aurora, Ohio)— and drug-treatment. […] The body weight of each animal was measured each day, and the Disease Activity Index (DAI) was scored for each animal on Days 4-6. On Day 6, the animals were sacrificed by cervical dislocation and the entire colon was removed and measured to the nearest 0.1 cm.

Abl = Abl (Homo sapiens, UniProt P00519); assay: Kinase selectivity panel; assay type: biochemical; conditions: read-out: percent of control activity of Abl
Protocol: (§1) A common problem with previous attempts to develop protein kinase inhibitors is the lack of selectivity toward the target kinase since the majority of these compounds interact with nucleotide-binding domains that are highly conserved among kinases. To determine if compound of this invention are non-selective kinase inhibitors, the effects of the SK inhibitor, Compound 73, on a diverse panel of 20 purified kinases was determined. The compound was tested at a single concentration of 50 μM.

Aurora-A = Aurora-A (Homo sapiens, UniProt O14965); assay: Kinase selectivity panel; assay type: biochemical; conditions: read-out: percent of control activity of Aurora-A
Aurora-A, sequence (O14965 whole entry): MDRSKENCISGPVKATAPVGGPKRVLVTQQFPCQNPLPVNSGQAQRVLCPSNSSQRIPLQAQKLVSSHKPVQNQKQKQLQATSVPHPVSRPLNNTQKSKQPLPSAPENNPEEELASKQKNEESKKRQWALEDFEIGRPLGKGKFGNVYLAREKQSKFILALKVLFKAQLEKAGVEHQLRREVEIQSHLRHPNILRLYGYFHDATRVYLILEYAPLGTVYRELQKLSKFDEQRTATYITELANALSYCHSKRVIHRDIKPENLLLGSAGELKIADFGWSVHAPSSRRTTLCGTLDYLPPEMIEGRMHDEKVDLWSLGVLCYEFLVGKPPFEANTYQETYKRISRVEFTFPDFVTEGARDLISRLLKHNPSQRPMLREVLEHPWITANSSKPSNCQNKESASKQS
Protocol: as §1

CDK1/cyclinB = CDK1/cyclinB (Homo sapiens, UniProt P06493); assay: Kinase selectivity panel; assay type: biochemical; conditions: read-out: percent of control activity of CDK1/cyclinB
CDK1/cyclinB, sequence (P06493 whole entry, species assumed): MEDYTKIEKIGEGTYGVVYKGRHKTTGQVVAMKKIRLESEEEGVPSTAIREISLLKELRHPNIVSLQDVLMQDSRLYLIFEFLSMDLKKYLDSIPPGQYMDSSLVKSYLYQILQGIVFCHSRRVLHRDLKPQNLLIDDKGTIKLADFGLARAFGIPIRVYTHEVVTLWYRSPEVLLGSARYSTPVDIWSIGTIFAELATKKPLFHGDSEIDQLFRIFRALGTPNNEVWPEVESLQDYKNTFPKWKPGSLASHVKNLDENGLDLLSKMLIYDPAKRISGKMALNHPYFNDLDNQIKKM
CDK1/cyclinB, sequence (P14635 whole entry partner, species assumed): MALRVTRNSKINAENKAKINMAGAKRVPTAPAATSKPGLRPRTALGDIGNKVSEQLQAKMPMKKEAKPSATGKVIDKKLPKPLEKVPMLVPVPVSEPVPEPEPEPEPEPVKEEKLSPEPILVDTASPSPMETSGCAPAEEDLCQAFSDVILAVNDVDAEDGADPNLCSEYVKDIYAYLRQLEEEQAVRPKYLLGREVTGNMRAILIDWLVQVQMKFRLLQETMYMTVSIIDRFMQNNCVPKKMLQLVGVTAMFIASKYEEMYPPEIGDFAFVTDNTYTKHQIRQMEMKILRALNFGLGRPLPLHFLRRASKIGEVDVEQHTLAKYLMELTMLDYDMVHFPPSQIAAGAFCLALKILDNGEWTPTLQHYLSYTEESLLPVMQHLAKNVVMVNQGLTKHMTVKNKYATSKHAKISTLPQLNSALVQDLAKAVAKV
Protocol: as §1

CDK2/cyclinE = CDK2/cyclinE (Homo sapiens, UniProt P24941); assay: Kinase selectivity panel; assay type: biochemical; conditions: read-out: percent of control activity of CDK2/cyclinE
Protocol: as §1

CHK1 = CHK1 (Homo sapiens, UniProt O14757); assay: Kinase selectivity panel; assay type: biochemical; conditions: read-out: percent of control activity of CHK1
CHK1, sequence (O14757 whole entry, species assumed): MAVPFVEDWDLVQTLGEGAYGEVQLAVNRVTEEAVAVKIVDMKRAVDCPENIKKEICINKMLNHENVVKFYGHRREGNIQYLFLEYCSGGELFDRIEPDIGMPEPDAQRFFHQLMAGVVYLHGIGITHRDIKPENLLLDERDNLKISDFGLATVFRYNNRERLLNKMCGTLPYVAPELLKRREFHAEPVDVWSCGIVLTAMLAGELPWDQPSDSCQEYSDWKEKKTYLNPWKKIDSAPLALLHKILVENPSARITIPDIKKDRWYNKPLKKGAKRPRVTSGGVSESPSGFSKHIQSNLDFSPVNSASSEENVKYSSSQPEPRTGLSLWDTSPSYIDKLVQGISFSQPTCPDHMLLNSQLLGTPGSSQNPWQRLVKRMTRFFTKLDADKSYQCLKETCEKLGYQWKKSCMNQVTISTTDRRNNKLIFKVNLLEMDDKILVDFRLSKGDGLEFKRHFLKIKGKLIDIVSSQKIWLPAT
Protocol: as §1

Ca^2+/calmodulin PK IV = Ca^2+/calmodulin PK IV (Homo sapiens, UniProt Q16566); assay: Kinase selectivity panel; assay type: biochemical; conditions: read-out: percent of control activity of Ca^2+/calmodulin PK IV
Protocol: as §1

Fyn = Fyn (Homo sapiens, UniProt P06241); assay: Kinase selectivity panel; assay type: biochemical; conditions: read-out: percent of control activity of Fyn
Fyn, sequence (P06241 whole entry, species assumed): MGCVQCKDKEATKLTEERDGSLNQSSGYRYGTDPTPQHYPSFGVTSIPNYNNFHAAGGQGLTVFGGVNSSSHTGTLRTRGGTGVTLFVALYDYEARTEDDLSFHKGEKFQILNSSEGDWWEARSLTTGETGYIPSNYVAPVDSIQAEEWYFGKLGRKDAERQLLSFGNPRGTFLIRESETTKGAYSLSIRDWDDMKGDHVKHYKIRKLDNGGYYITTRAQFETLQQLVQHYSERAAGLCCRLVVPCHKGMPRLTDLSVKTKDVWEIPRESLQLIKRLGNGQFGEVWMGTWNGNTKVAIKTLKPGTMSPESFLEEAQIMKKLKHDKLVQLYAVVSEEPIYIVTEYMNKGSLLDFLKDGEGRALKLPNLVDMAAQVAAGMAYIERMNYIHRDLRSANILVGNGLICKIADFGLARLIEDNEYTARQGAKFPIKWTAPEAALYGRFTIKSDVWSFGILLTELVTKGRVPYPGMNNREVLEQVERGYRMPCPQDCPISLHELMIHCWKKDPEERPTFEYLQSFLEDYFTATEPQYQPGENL
Protocol: as §1

IKKα = IKKα (Homo sapiens, UniProt O15111); assay: Kinase selectivity panel; assay type: biochemical; conditions: read-out: percent of control activity of IKKα
Protocol: as §1

MEK kinase 1 = assay: Kinase selectivity panel; assay type: biochemical; conditions: 50 μM
Protocol: as §1

P38 MAP kinase 1 = P38 MAP kinase 1 (Homo sapiens, UniProt Q16539); assay: Kinase selectivity panel; assay type: biochemical; conditions: read-out: percent of control activity of P38 MAP kinase 1
P38 MAP kinase 1, sequence (Q16539 whole entry): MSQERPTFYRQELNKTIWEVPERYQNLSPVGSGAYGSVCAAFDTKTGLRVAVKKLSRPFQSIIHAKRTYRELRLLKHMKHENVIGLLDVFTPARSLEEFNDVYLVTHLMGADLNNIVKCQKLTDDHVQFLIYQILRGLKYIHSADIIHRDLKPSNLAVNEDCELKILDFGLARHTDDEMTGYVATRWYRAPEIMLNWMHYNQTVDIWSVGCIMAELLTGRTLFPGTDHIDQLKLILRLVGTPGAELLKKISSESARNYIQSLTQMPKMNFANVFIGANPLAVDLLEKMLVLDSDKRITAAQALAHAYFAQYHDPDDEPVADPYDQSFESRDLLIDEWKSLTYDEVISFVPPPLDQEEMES
Protocol: as §1

P38 MAP kinase 2 = P38 MAP kinase 2 (Homo sapiens, UniProt Q15759); assay: Kinase selectivity panel; assay type: biochemical; conditions: read-out: percent of control activity of P38 MAP kinase 2
Protocol: as §1

PDK1 = PDK1 (Homo sapiens, UniProt O15530); assay: Kinase selectivity panel; assay type: biochemical; conditions: read-out: percent of control activity of PDK1
Protocol: as §1

PKA = PKA (Homo sapiens, UniProt P17612); assay: Kinase selectivity panel; assay type: biochemical; conditions: read-out: percent of control activity of PKA
Protocol: as §1

PKBα = PKBα (Homo sapiens, UniProt P31749); assay: Kinase selectivity panel; assay type: biochemical; conditions: read-out: percent of control activity of PKBα
PKBα, sequence (P31749 whole entry, species assumed): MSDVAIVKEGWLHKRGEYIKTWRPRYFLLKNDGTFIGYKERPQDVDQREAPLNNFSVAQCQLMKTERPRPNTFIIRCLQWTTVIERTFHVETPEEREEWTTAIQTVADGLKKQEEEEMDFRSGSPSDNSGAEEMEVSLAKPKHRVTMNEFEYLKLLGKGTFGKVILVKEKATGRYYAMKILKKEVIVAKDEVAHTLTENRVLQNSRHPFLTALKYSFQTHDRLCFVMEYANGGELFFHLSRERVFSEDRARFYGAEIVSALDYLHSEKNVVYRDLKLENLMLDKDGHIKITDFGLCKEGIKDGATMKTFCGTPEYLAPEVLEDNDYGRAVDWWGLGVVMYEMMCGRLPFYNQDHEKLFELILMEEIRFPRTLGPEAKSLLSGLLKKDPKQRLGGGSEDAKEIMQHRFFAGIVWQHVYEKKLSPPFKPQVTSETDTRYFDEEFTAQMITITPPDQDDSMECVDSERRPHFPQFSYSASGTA
Protocol: as §1

PKBγ = PKBγ (Homo sapiens, UniProt Q9Y243); assay: Kinase selectivity panel; assay type: biochemical; conditions: read-out: percent of control activity of PKBγ
Protocol: as §1

Protein kinase C α = Protein kinase C α (Homo sapiens, UniProt P17252); assay: Kinase selectivity panel; assay type: biochemical; conditions: read-out: percent of control activity of Protein kinase C α
Protocol: as §1

Protein kinase C ε = Protein kinase C ε (Homo sapiens, UniProt Q02156); assay: Kinase selectivity panel; assay type: biochemical; conditions: read-out: percent of control activity of Protein kinase C ε
Protein kinase C ε, sequence (Q02156 whole entry): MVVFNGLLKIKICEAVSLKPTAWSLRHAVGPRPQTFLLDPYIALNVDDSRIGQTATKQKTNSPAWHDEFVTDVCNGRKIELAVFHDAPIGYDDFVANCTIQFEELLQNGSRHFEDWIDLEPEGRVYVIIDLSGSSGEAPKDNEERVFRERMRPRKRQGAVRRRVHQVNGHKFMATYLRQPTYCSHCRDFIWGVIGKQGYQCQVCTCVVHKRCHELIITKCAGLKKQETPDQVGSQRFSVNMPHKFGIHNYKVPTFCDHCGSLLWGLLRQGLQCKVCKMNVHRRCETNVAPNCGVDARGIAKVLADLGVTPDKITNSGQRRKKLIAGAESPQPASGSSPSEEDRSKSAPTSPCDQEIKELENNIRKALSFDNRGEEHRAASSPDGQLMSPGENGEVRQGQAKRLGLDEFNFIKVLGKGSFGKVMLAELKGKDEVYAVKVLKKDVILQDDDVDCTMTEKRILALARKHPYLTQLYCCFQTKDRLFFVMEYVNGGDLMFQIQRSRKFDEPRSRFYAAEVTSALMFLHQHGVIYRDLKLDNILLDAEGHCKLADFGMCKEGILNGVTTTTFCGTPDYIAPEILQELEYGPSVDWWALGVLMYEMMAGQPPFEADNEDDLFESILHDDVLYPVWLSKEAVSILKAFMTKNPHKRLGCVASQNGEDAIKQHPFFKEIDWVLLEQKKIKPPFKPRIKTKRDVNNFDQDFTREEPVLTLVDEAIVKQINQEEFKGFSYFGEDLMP
Protocol: as §1

cRaf = cRaf (Homo sapiens, UniProt P04049); assay: Kinase selectivity panel; assay type: biochemical; conditions: read-out: percent of control activity of cRaf
cRaf, sequence (P04049 whole entry, species assumed): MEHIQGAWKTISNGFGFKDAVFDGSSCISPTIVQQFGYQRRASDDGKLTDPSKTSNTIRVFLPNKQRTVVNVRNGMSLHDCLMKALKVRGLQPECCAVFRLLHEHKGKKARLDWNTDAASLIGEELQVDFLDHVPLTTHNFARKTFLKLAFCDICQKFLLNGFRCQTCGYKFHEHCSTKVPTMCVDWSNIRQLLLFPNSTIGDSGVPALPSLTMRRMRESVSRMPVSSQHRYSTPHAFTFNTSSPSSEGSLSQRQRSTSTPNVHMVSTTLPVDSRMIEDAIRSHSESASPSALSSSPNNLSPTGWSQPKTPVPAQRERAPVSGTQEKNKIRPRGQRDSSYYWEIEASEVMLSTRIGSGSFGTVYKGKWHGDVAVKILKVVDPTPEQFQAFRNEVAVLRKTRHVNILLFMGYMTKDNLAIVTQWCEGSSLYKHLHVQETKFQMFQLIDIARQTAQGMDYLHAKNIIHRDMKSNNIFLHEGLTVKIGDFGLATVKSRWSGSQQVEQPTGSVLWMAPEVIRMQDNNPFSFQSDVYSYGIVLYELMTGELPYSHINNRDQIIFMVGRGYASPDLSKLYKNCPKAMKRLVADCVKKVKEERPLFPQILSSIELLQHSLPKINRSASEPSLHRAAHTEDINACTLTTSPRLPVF
Protocol: as §1

cSrc = cSrc (Homo sapiens, UniProt P12931); assay: Kinase selectivity panel; assay type: biochemical; conditions: read-out: percent of control activity of cSrc
cSrc, sequence (P12931 whole entry, species assumed): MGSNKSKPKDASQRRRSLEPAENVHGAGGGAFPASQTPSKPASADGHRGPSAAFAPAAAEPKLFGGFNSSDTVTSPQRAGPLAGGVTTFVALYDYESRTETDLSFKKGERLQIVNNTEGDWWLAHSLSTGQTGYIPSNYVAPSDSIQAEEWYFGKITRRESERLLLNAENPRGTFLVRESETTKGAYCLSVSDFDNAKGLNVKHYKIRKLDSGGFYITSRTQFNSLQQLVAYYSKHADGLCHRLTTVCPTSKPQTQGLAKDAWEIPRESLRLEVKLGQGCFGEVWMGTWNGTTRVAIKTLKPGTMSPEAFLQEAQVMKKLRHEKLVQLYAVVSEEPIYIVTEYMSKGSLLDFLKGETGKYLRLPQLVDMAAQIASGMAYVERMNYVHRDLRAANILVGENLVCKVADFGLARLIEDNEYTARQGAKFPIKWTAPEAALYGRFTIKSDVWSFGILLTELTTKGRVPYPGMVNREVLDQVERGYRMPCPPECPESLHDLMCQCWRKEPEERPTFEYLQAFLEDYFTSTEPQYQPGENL
Protocol: as §1

[1] = tested on: diverse panel of 20 purified kinases; assay: Kinase selectivity panel, overall statement; assay type: biochemical; conditions: 50 μM
Protocol: as §1
The panel included both serine/threonine kinases and tyrosine kinases, as well as several that are regulated by their interaction with lipids.

CCCC(=O)Oc1ccc(C=CC(=O)Nc2nc(-c3ccc(Cl)cc3)cs2)cc1OC [Compound 8, Butyric acid 4-{2-[4-(4-chloro-phenyl)-thiazol-2-ylcarbamoyl]-vinyl}-2-methoxy-phenyl ester]
increase in colonic MPO activity (C57BL/6 mice): markedly attenuated | colon length (C57BL/6 mice; Day 6): intermediate length | Disease Activity Index (DAI) (C57BL/6 mice; Days 4-6): reduced the intensity of the IBD manifestations

Clc1ccc(-c2csc(NCc3ccccc3)n2)cc1 [Compound 73, Benzyl-[4-(4-chloro-phenyl)-thiazol-2-yl]-amine]
remaining activity at 50 µM (Abl): 100 ± 1% | remaining activity at 50 µM (Aurora-A): 100% | remaining activity at 50 µM (CDK1/cyclinB): 100% | remaining activity at 50 µM (CDK2/cyclinE): 102 ± 7% | remaining activity at 50 µM (CHK1): 124% | remaining activity at 50 µM (Ca^2+/calmodulin PK IV): 113 ± 3% | remaining activity at 50 µM (Fyn): 102% | remaining activity at 50 µM (IKKα): 152 ± 7% | percent of control activity of MEK kinase 1 (MEK kinase 1): 104 ± 3% | remaining activity at 50 µM (P38 MAP kinase 1): 88 ± 1% | remaining activity at 50 µM (P38 MAP kinase 2): 101% | remaining activity at 50 µM (PDK1): 98 ± 6% | remaining activity at 50 µM (PKA): 94 ± 4% | remaining activity at 50 µM (PKBα): 102 ± 1% | remaining activity at 50 µM (PKBγ): 100 ± 10% | remaining activity at 50 µM (Protein kinase C α): 92 ± 1% | remaining activity at 50 µM (Protein kinase C ε): 91 ± 2% | remaining activity at 50 µM (cRaf): 104 ± 1% | remaining activity at 50 µM (cSrc): 119 ± 6% | inhibition of the 20 kinases of the panel [1]: none of the 20 diverse kinases tested were significantly inhibited
